Assay results: the supplement of paper PMC11061612

Key:
[1] = system: OACM5-1 (Esophageal Adenocarcinoma); assay: combination Emax (second highest fraction inhibited in the dose matrix, 72 h); higher = more inhibition; extreme values may be limits of the assay
Summary of the method: (§1)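 Cell lines grown in DMEM/F12 or RPMI with 10% FBS were plated in 1536-well plates and held 24 hours at 37°C, 5% CO2 before 72 hours of exposure to two-drug dose matrices, with DMSO typically at 0.2%. CellTiter-Glo 2.0 luminescence gave viability, which was converted to inhibition. Vehicle wells were set to 0 and blank wells to 1. Combination Emax is the second-highest inhibition in the matrix, and Bliss excess is the observed combination effect minus the expected EA + EB − EA·EB, where EA and EB are the single-agent effects.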

[2] = system: HCC2998 (Colorectal Carcinoma); assay: as above
Summary of the method: as §1

[3] = system: DU-145 (Prostate Carcinoma); assay: as above
Summary of the method: as §1

Hey (Ovarian Carcinoma) = assay: as above
Summary of the method: as §1

[4] = system: NCI-H2122 (Lung Adenocarcinoma); assay: as above
Summary of the method: as §1

[5] = system: NCI-H650 (Lung Adenocarcinoma); assay: as above
Summary of the method: as §1

[6] = system: EJM (Plasma Cell Myeloma); assay: as above
Summary of the method: as §1

[7] = system: HCC1937 (Breast Carcinoma); assay: as above
Summary of the method: as §1

[8] = system: ALL-SIL (T-Lymphoblastic Leukemia); assay: as above
Summary of the method: as §1

[9] = system: SK-LU-1 (Lung Adenocarcinoma); assay: as above
Summary of the method: as §1

[10] = system: HCC1500 (Breast Carcinoma); assay: as above
Summary of the method: as §1

[11] = system: NCI-H1092 (Small Cell Lung Carcinoma); assay: as above
Summary of the method: as §1

[12] = system: G-401 (Other Solid Carcinomas); assay: as above
Summary of the method: as §1

[13] = system: NCI-H1838 (Lung Adenocarcinoma); assay: as above
Summary of the method: as §1

[14] = system: CADO-ES1 (Ewing's Sarcoma); assay: Bliss excess, mean over the matrix (fraction); higher = more synergy
Summary of the method: as §1

[15] = system: EJM (Plasma Cell Myeloma); assay: as above
Summary of the method: as §1

[16] = system: ALL-SIL (T-Lymphoblastic Leukemia); assay: as above
Summary of the method: as §1

[17] = system: SK-LU-1 (Lung Adenocarcinoma); assay: as above
Summary of the method: as §1

[18] = system: HCC1500 (Breast Carcinoma); assay: as above
Summary of the method: as §1

[19] = system: G-401 (Other Solid Carcinomas); assay: as above
Summary of the method: as §1
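Throughout, for Bliss excess, mean over the matrix: after 72 h of two-drug dosing.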

SMILES | combination Emax [1] | combination Emax [2] | combination Emax [3] | combination Emax (Hey (Ovarian Carcinoma)) | combination Emax [4] | combination Emax [5] | combination Emax [6] | combination Emax [7] | combination Emax [8] | combination Emax [9] | combination Emax [10] | combination Emax [11] | combination Emax [12] | combination Emax [13] | Bliss excess [14] | Bliss excess [15] | Bliss excess [16] | Bliss excess [17] | Bliss excess [18] | Bliss excess [19]
Cc1cc2ncnn2cc1Nc1ncc2c(n1)n(C1CCOCC1)c(=O)n2C [AZD7648] + O=C(c1cc(Cc2n[nH]c(=O)c3ccccc23)ccc1F)N1CCN(C(=O)C2CC2)CC1 [Olaparib] (first compound max 10 µM, 7x7, partner max 10 µM) | 0.267 | 0.321 | 0.171 | 0.266 | 0.242 | 0.14 | 0.2 | 0.154 | 0.315 | 0.329 | 0.269 | 0.111 | 0.434 | 0.323 | 0.0086 | -0.0369 | -0.0083 | -0.066 | -0.0234 | -0.0308
CN(CCO)CC[C@H](CSc1ccccc1)Nc1ccc(S(=O)(=O)NC(=O)c2ccc(N3CCC([C@@H](O)c4ccccc4-c4ccc(Cl)cc4)CC3)cc2)cc1S(=O)(=O)C(F)(F)F [AZD4320] + C1CN(CCC1(C(=O)N[C@@H](CCO)C2=CC=C(C=C2)Cl)N)C3=NC=NC4=C3C=CN4 [Capivasertib] (first compound max 1 µM, 7x7, partner max 3 µM) | 0.617 | 0.881 | 0.0863 | 0.106 | 0.411 | 0.134 | 0.525 | 0.434 | 1 | 0.267 | 0.993 | 0.813 | 0.529 | 0.178 | -0.0387 | -0.0272 | -0.0464 | -0.0558 | -0.0178 | -0.0591
Cc1nc(Nc2ncc(C(=O)Nc3c(C)cccc3Cl)s2)cc(N2CCN(CCO)CC2)n1 [Dasatinib] + CC(=O)Nc1cccc(-n2c(=O)n(C3CC3)c(=O)c3c(Nc4ccc(I)cc4F)n(C)c(=O)c(C)c32)c1 [Trametinib] (first compound max 2 µM, 7x7, partner max 1 µM) | 0.417 | 1 | 0.457 | 0.858 | 0.942 | 0.747 | 0.153 | 0.5 | 1 | 0.511 | 0.172 | 0.125 | 0.903 | 0.367 | -0.0435 | -0.0342 | 0.0316 | -0.0889 | -0.0599 | -0.0089
Cc1c2c(nn1C)CSCc1cc(n(C)n1)CSc1cc(c3ccccc3c1)OCCCc1c(C(=O)O)n(C)c3c-2c(Cl)ccc13 [AZD5991] + Cn1cnc2c(F)c(Nc3ccc(Br)cc3Cl)c(C(=O)NOCCO)cc21 [Selumetinib] (first compound max 1 µM, 7x7, partner max 3 µM) | 0.94 | 0.998 | 0.221 | 0.563 | 0.935 | 0.432 | 0.983 | 0.464 | 1 | 0.476 | 0.41 | 0.608 | 0.474 | 0.511 | -0.0208 | 0.0088 | 0.0068 | -0.0225 | 0.0093 | -0.0039
CN(CCO)CC[C@H](CSc1ccccc1)Nc1ccc(S(=O)(=O)NC(=O)c2ccc(N3CCC([C@@H](O)c4ccccc4-c4ccc(Cl)cc4)CC3)cc2)cc1S(=O)(=O)C(F)(F)F [AZD4320] + Cc1cc2ncnn2cc1Nc1ncc2c(n1)n(C1CCOCC1)c(=O)n2C [AZD7648] (first compound max 1 µM, 7x7, partner max 10 µM) | 0.577 | 0.492 | – | 0.247 | 0.273 | 0.134 | 0.382 | 0.29 | 1 | 0.421 | 0.998 | 0.855 | 0.424 | 0.289 | -0.0361 | 0.0347 | -0.0083 | 0.0207 | -0.0027 | -0.0392
C[C@@H](c1ccc2nccn2c1)n1nnc2ncc(-c3cnn(C)c3)nc21 [Savolitinib] + CC1(C)CCC(CN2CCN(c3ccc(C(=O)NS(=O)(=O)c4ccc(NCC5CCOCC5)c([N+](=O)[O-])c4)c(Oc4cnc5[nH]ccc5c4)c3)CC2)=C(c2ccc(Cl)cc2)C1 [Venetoclax] (first compound max 1 µM, 7x7, partner max 1 µM) | 0.166 | 0.105 | 0.101 | 0.0566 | 0.196 | 0.0996 | 0.232 | 0.165 | 0.675 | 0.273 | 0.629 | 0.248 | 0.104 | 0.146 | -0.0549 | -0.0127 | -0.0072 | -0.0258 | -0.008 | -0.0528
CN(CCO)CC[C@H](CSc1ccccc1)Nc1ccc(S(=O)(=O)NC(=O)c2ccc(N3CCC([C@@H](O)c4ccccc4-c4ccc(Cl)cc4)CC3)cc2)cc1S(=O)(=O)C(F)(F)F [AZD4320] + C[C@@H]1COCCN1C2=NC(=NC(=C2)C3(CC3)[S@](=N)(=O)C)C4=C5C=CNC5=NC=C4 [AZD6738] (first compound max 1 µM, 7x7, partner max 10 µM) | 0.663 | 0.968 | 0.6 | 0.869 | 0.972 | 0.415 | 0.929 | 0.761 | 1 | 0.663 | 1 | 0.915 | 0.742 | 0.694 | -0.0031 | 0.0488 | 0.0038 | -0.0884 | 0.0444 | -0.0287
C[C@@H](c1ccc2nccn2c1)n1nnc2ncc(-c3cnn(C)c3)nc21 [Savolitinib] + Cc1c2c(nn1C)CSCc1cc(n(C)n1)CSc1cc(c3ccccc3c1)OCCCc1c(C(=O)O)n(C)c3c-2c(Cl)ccc13 [AZD5991] (first compound max 1 µM, 7x7, partner max 1 µM) | 0.896 | 0.454 | 0.132 | 0.127 | 0.64 | 0.2 | 0.232 | 0.182 | 0.264 | 0.329 | 0.428 | 0.46 | 0.295 | 0.28 | 0.0151 | 0.0066 | -0.0355 | -0.0291 | -0.001 | -0.0047
COc1cc2ncnc(Nc3ccc(F)c(Cl)c3)c2cc1OCCCN1CCOCC1 [Gefitinib] + CC(C)n1c(=O)n(C)c2cnc3cc(F)c(-c4ccc(OCCCN5CCCCC5)nc4)cc3c21 [AZD1390] (first compound max 10 µM, 7x7, partner max 0.3 µM) | 0.191 | 0.105 | 0.167 | 0.0522 | 0.626 | 0.106 | 0.133 | 0.272 | 0.301 | 0.245 | 0.113 | 0.0586 | 0.404 | 0.19 | -0.0634 | -0.0395 | -0.0699 | -0.0818 | -0.0338 | -0.0446
